Data: US20140107051A1, “ISOFLAVONES FOR TREATING MUCOPOLYSACCHARIDOSES” (INSTYTUT FARMACEUTYCZNY, priority 2005, published 2014)
pIC50: −log10 of the molar value.

Columns and labels:
[1] = system: cultured human skin fibroblasts derived from normal individuals; assay: 35S-sulphate incorporation test of glycosaminoglycans synthesis, normal cells; assay type: cell-based; conditions: 30 μM; for activity at 30 µM: Homo sapiens, Skin fibroblast, DMSO control = 1, read-out: Relative GAG synthesis (converted to 1 cell), Normal cells
Experimental: (§1) The activity of isoflavones was evaluated by the measure of glycosaminoglycans synthesis in 35S-sulphate incorporation test comprising incubation of the radiolabelled 35S-sulfate into GAGs in cultured human skin fibroblasts derived from normal individuals (control) and patients affected with mucopolysaccharidose (Murata et al., Arch Biochem Biophys 2003; 413: 229-235).
(§2) The negative control was DMSO (diluent for genistein and all derivatives), the positive control—genistein. […] Experiment with each cell line has been repeated twice, and every measurement has been done twice.

[2] = system: fibroblasts of patients affected with MPS I; assay: 35S-sulphate incorporation test of glycosaminoglycans synthesis, MPS I cells; assay type: cell-based, human; conditions: Homo sapiens, Fibroblast, 30 μM; DMSO control = 1; read-out: Relative GAG synthesis (converted to 1 cell), MPS I
Experimental: as §1, §2

[3] = system: cultured human skin fibroblasts derived from patients affected with mucopolysaccharidose; assay: 35S-sulphate incorporation test of glycosaminoglycans synthesis, different human cell lines / MPS types; assay type: cell-based; conditions: 30 μM; both cell lines of Table 2
Experimental: as §1, §2

[4] = Proliferation 144 h (Table 4); assay type: cell-based; conditions: read-out: Proliferation 144 h IC50
MPS IIIA fibroblasts = assay: Number of lysosomal structures by electron microscopy, MPS IIIA; assay type: cell-based, human; conditions: 30 μM
MPS IIIB fibroblasts = assay: Number of lysosomal structures by electron microscopy, MPS IIIB; assay type: cell-based, human; conditions: 30 μM

Row | SMILES | activity at 30 µM [1] | activity at 30 µM [2] | CC50 at 24 h (in vitro) | Inhibition in relation to genistein, first symbol (normal cells) [1] | influence on GAG synthesis compared with genistein (in words) [3] | pIC50 [4] | CC50 at 48 h (in vitro) | Number of structures per 100 μm^2 of cellular cross section ± SD, amorphous (MPS IIIA fibroblasts) | Number of structures per 100 μm^2 of cellular cross section ± SD, complexed (MPS IIIA fibroblasts) | Number of structures per 100 μm^2 of cellular cross section ± SD, lamellar (MPS IIIA fibroblasts) | Number of structures per 100 μm^2 of cellular cross section ± SD, total number (MPS IIIA fibroblasts) | Number of structures per 100 μm^2 of cellular cross section ± SD, amorphous (MPS IIIB fibroblasts) | Number of structures per 100 μm^2 of cellular cross section ± SD, complexed (MPS IIIB fibroblasts) | Number of structures per 100 μm^2 of cellular cross section ± SD, lamellar (MPS IIIB fibroblasts) | Number of structures per 100 μm^2 of cellular cross section ± SD, total number (MPS IIIB fibroblasts)
1 | C=CCOC(=O)Oc1cc(O)c2c(=O)c(-c3ccc(O)cc3)coc2c1 [IFG-063] | 75% | 187% | 51.5 µM |  |  |  |  |  |  |  |  |  |  |  | 
2 | CC(C)(C)OC(=O)COc1ccc(-c2coc3cc(OCC(=O)OC(C)(C)C)cc(O)c3c2=O)cc1 [IFG-042] | 14% | 49% | 22 µM | + | stronger influence on GAG synthesis than genistein |  |  |  |  |  |  |  |  |  | 
3 | O=c1c(-c2ccc(O)cc2)coc2cc(OCCO)cc(O)c12 [IFG-073, 5-hydroxy-7-(2-hydroxyethoxy)-3-(4-hydroxyphenyl)-chromen-4-one] |  |  | 27.5 µM |  |  | 4.79 | 21.7 µM |  |  |  |  |  |  |  | 
4 | Nc1ccccc1C(=O)Oc1ccc(-c2coc3cc(O)cc(O)c3c2=O)cc1 [IFG-001] | 84% | 170% | 13.9 µM |  |  |  |  |  |  |  |  |  |  |  | 
5 | C=CCOc1ccc(-c2coc3cc(OCc4ccccc4)cc(O)c3c2=O)cc1 [IFG-051] | 32% | 96% | 14.6 µM | 0 | an activity comparable with genistein, but only for one cell line |  |  |  |  |  |  |  |  |  | 
6 | COC(=O)COc1cc(O)c2c(=O)c(-c3ccc(O)cc3)coc2c1 [IFG-070, [5-hydroxy-3-(4-hydroxyphenyl)-4-oxo-4H-chromen-7-yloxy]-acetic acid methyl ester] |  |  | > 30 µM |  |  | 4.32 | > 30 µM |  |  |  |  |  |  |  | 
7 | O=c1c(-c2ccc(O)cc2)coc2cc(OCc3ccccc3)cc(O)c12 [IFG-043] | 17% | 44% | 14.5 µM | + | an activity comparable with genistein |  |  |  |  |  |  |  |  |  | 
8 | CC(C)Oc1ccc(-c2coc3cc(OCc4ccccc4)cc(OC(C)C)c3c2=O)cc1 [IFG-065] | 152% | 97% | 22.7 µM |  |  |  |  |  |  |  |  |  |  |  | 
9 | C=CCOc1cc(O)c2c(=O)c(-c3ccc(O)cc3)coc2c1 [IFG-027] | 22% | 57% | 13.1 µM | 0/0 | an activity comparable with genistein |  |  |  |  |  |  |  |  |  | 
10 | CC(C)(C)OC(=O)COc1ccc(-c2coc3cc(O)cc(O)c3c2=O)cc1 [IFG-048] | 70% | 92% | 20.3 µM |  | an activity comparable with genistein, but only for one cell line |  |  |  |  |  |  |  |  |  | 
11 | C=CCOc1cc(O)c2c(=O)c(-c3ccc(OC(=O)c4ccccc4OC(C)=O)cc3)coc2c1 [IFG-052] | 75% | 85% | 15.8 µM |  | an activity comparable with genistein, but only for one cell line | 4.91 | 21.5 µM |  |  |  |  |  |  |  | 
12 | COc1ccc(COc2cc(O)c3c(=O)c(-c4ccc(O)cc4)coc3c2)cc1 [IFG-062] | 316% | 561% | 12.1 µM |  |  |  |  |  |  |  |  |  |  |  | 
13 | CC(C)Oc1ccc(-c2coc3cc(O)cc(O)c3c2=O)cc1 [IFG-066] | 23% | 44% | > 30 µM | 0/0 |  | 4.84 | > 30 µM | 0.18 ± 0.19 per 100 μm^2 | 0.16 ± 0.08 per 100 μm^2 | 0.13 ± 0.10 per 100 μm^2 | 0.48 ± 0.17 per 100 μm^2 | 0.08 ± 0.06 per 100 μm^2 | 0.11 ± 0.14 per 100 μm^2 | 0.15 ± 0.10 per 100 μm^2 | 0.34 ± 0.23 per 100 μm^2
14 | CC(=O)OCCCCCOc1cc(O)c2c(=O)c(-c3ccc(O)cc3)coc2c1 [IFG-071, acetic acid 5-[5-hydroxy-3-(4-hydroxyphenyl)-4-oxo-4H-chromen-7-yloxy]-pentyl ester] |  |  | > 30 µM |  |  | 4.75 | 57.6 µM | 0.25 ± 0.11 per 100 μm^2 | 0.26 ± 0.09 per 100 μm^2 | 0.28 ± 0.13 per 100 μm^2 | 0.79 ± 0.22 per 100 μm^2 | 0.13 ± 0.09 per 100 μm^2 | 0.07 ± 0.06 per 100 μm^2 | 0.07 ± 0.07 per 100 μm^2 | 0.26 ± 0.13 per 100 μm^2
15 | C=CCOc1ccc(-c2coc3cc(OCC=C)cc(O)c3c2=O)cc1 [IFG-035] | 26% | 117% | 22.6 µM | 0 | an activity comparable with genistein, but only for one cell line |  |  |  |  |  |  |  |  |  | 
16 | CCCCCCCCCCCCCCCC(=O)Oc1cc(O)c2c(=O)c(-c3ccc(O)cc3)coc2c1 [IFG-018] | 37% | 51% | 41.7 µM | 0/0 | stronger influence on GAG synthesis than genistein | 4.60 | 23.8 µM |  |  |  |  |  |  |  | 
17 | CC(C)Oc1ccc(-c2coc3cc(OCc4ccccc4)cc(O)c3c2=O)cc1 [IFG-064] | 68% | 60% | 6.6 µM |  | an activity comparable with genistein, but only for one cell line |  |  |  |  |  |  |  |  |  | 
18 | CC(=O)Oc1ccc(-c2coc3cc(OCc4ccccc4)cc(O)c3c2=O)cc1 [IFG-067] | 67% | 61% | 15.1 µM |  |  |  |  |  |  |  |  |  |  |  | 
19 | O=C(Oc1cc(O)c2c(=O)c(-c3ccc(O)cc3)coc2c1)c1ccccc1O [IFG-034] | 40% | 93% | > 30 µM |  |  | 4.64 | > 30 µM | 0.17 ± 0.09 per 100 μm^2 | 0.27 ± 0.14 per 100 μm^2 | 0.17 ± 0.09 per 100 μm^2 | 0.61 ± 0.20 per 100 μm^2 | 0.15 ± 0.08 per 100 μm^2 | 0.06 ± 0.05 per 100 μm^2 | 0.20 ± 0.16 per 100 μm^2 | 0.41 ± 0.16 per 100 μm^2
20 | O=C(O)COc1cc(O)c2c(=O)c(-c3ccc(O)cc3)coc2c1 [IFG-054] | 30% | 53% | > 30 µM | 0/0 |  | < 4.52 | > 30 µM |  |  |  |  |  |  |  | 
21 | O=c1c(-c2ccc(O)cc2)coc2cc(OCCCO)cc(O)c12 [IFG-072, 5-hydroxy-3-(4-hydroxyphenyl)-7-(3-hydroxypropoxy)-chromen-4-one] |  |  | > 30 µM |  |  | 4.85 | 32.5 µM | 0.34 ± 0.17 per 100 μm^2 | 0.28 ± 0.10 per 100 μm^2 | 0.20 ± 0.10 per 100 μm^2 | 0.82 ± 0.23 per 100 μm^2 | 0.14 ± 0.10 per 100 μm^2 | 0.16 ± 0.08 per 100 μm^2 | 0.11 ± 0.12 per 100 μm^2 | 0.41 ± 0.20 per 100 μm^2
22 | CC(=O)OCC1OC(Oc2cc(O)c3c(=O)c(-c4ccc(O)cc4)coc3c2)C=CC1OC1OC(COC(C)=O)C(OC(C)=O)C(OC(C)=O)C1OC(C)=O (stereo not drawn) [IFG-021] | 57% | 92% | 11 µM |  |  |  |  |  |  |  |  |  |  |  | 
23 | CC(C)(C#N)c1cc(COc2ccc(-c3coc4cc(OCc5ccccc5)cc(O)c4c3=O)cc2)cc(C(C)(C)C#N)c1 [IFG-053] | 30% | 52% | > 30 µM | 0/0 | an activity comparable with genistein | 4.28 | > 30 µM |  |  |  |  |  |  |  | 
24 | O=c1c(-c2ccc(O)cc2)coc2cc(OCC3CO3)cc(O)c12 (stereo not drawn) [IFG-050] | 10% | 73% | 11.6 µM | + | stronger influence on GAG synthesis than genistein |  |  |  |  |  |  |  |  |  | 
25 | O=C(O)CCCC(=O)Oc1ccc(-c2coc3cc(OCc4ccccc4)cc(O)c3c2=O)cc1 [IFG-060] | 43% | 31% | 14.9 µM | − |  |  |  |  |  |  |  |  |  |  | 
